In ChEMBL document CHEMBL4024712, “Synthesis, stability and mechanistic studies of potent anticryptococcal hexapeptides” (Eur J Med Chem, 2017):
Converted amounts (≈) assume the structure as drawn. Blank lines part the entries; values can stand above or below the molecule they belong to. The source made the active and inactive calls. The calls are words filed in the database; no cut-off is given here. Non-standard residues stand in square brackets, D forms with d. Residues, ends and D or L forms follow the SMILES beside them. His(τ-Bzl) = N[C@@H](Cc1cn(Cc2ccccc2)cn1)C(=O)O; Phe(4-NH2) = Nc1ccc(C[C@H](N)C(=O)O)cc1; Phe(4-Me) = Cc1ccc(C[C@H](N)C(=O)O)cc1; Cha = N[C@@H](CC1CCCCC1)C(=O)O; Orn = NCCC[C@H](N)C(=O)O

Columns and labels:
Candida albicans [1] = experiment: Antifungal activity against Candida albicans ATCC 90028 after 18 to 24 hrs by Alamar blue assay; type: functional
Nakaseomyces glabratus = experiment: Antifungal activity against Candida glabrata ATCC 90030 after 18 to 24 hrs by Alamar blue assay; type: functional
Pichia kudriavzevii [2] = experiment: Fungicidal activity against Candida krusei ATCC 6258 after 18 to 24 hrs by Alamar blue assay; type: functional
Aspergillus fumigatus = experiment: Antifungal activity against Aspergillus fumigatus ATCC 90906 after 68 to 72 hrs by Alamar blue assay; type: functional
Cryptococcus neoformans [3] = experiment: Antifungal activity against Cryptococcus neoformans ATCC 90113 after 68 to 72 hrs by Alamar blue assay; type: functional
[4] = tested on: Mycobacterium intracellulare; experiment: Anti-bacterial activity against Mycobacterium intracellulare ATCC 23068 after 68 to 72 hrs by Alamar blue assay; type: functional, cell-based
Pseudomonas aeruginosa = experiment: Anti-bacterial activity against Pseudomonas aeruginosa ATCC 27853 by CLSI method; type: functional
Vero = experiment: Cytotoxicity against African green monkey Vero cells up to 10 ug/ml after 48 hrs by neutral red dye based assay; type: cell-based; conditions: chlorocebus sabaeus
[5] = Selectivity index ratio of cytotoxic concentration against African green monkey Vero cells to IC50 for Cryptococcus neoformans ATCC 90113; type: toxicity; conditions: read-out: Selectivity Index
Lipid bilayer [6] = experiment: Binding affinity to EYPC/EYPG small unilamellar vesicles at 0.1 uM by tryptophan fluorescence quenching assay
Lipid bilayer [7] = experiment: Binding affinity to EYPC/cholesterol small unilamellar vesicles at 0.1 uM by tryptophan fluorescence quenching assay; type: ADME
[8] = Proteolytic stability assessed as trypsin (unknown origin)-mediated compound hydrolysis at compound to trypsin ratio of 0.5 to […] measured after 24 hrs by RP-HPLC method; type: ADME; conditions: human
Cryptococcus neoformans [9] = experiment: Induction of cell lysis in Cryptococcus neoformans ATCC 90113 biofilm assessed as formation of holes at MIC after 1 hr by osmium tetroxide staining based scanning electron microscopic method; type: functional
Cryptococcus neoformans [10] = experiment: Induction of cell lysis in Cryptococcus neoformans ATCC 90113 biofilm assessed as cytoplasm leakage at MIC after 1 hr by photungstic acid/ammonium molybdate/uranyl acetatebased scanning based transmission electron microscopic method; type: functional
Cryptococcus neoformans [11] = experiment: Induction of cell lysis in Cryptococcus neoformans ATCC 90113 biofilm assessed as formation of pits at MIC after 1 hr by photungstic acid/ammonium molybdate/uranyl acetatebased scanning based transmission electron microscopic method; type: functional
Lipid bilayer [12] = experiment: Disruption of EYPC/EYPG small unilamellar vesicles assessed as disfigured liposomes at 0.5 ug/ml by phosphotungstic acid staining based transmission electron microscopic method
Pichia kudriavzevii [13] = experiment: Antifungal activity against Candida krusei ATCC 6258 after 18 to 24 hrs by Alamar blue assay; type: functional
Cryptococcus neoformans [14] = experiment: Fungicidal activity against Cryptococcus neoformans ATCC 90113 after 68 to 72 hrs by Alamar blue assay; type: functional
Staphylococcus aureus [15] = experiment: Anti-bacterial activity against methicillin-resistant Staphylococcus aureus ATCC 33591 by CLSI method; type: functional
Staphylococcus aureus [16] = experiment: Anti-bacterial activity against Staphylococcus aureus ATCC 29213 by CLSI method; type: functional
Escherichia coli [17] = experiment: Anti-bacterial activity against Escherichia coli ATCC 35218 by CLSI method; type: functional; conditions: Escherichia coli, ATCC 35218; for IC50: read-out: IC50
Escherichia coli [18] = experiment: Bactericidal activity against Escherichia coli ATCC 35218 by CLSI method; type: functional
Lipid bilayer [19] = experiment: Disruption of EYPC/EYPG small unilamellar vesicles assessed as lysed liposomes at 0.5 ug/ml by phosphotungstic acid staining based transmission electron microscopic method
Lipid bilayer [20] = experiment: Disruption of EYPC/cholesterol small unilamellar vesicles at 0.5 ug/ml by phosphotungstic acid staining based transmission electron microscopic method; type: ADME
Cryptococcus neoformans [21] = experiment: Induction of cell lysis in Cryptococcus neoformans ATCC 90113 biofilm assessed as corrugated cells at MIC after 1 hr by osmium tetroxide staining based scanning electron microscopic method; type: functional
Cryptococcus neoformans [22] = experiment: Induction of cell lysis in Cryptococcus neoformans ATCC 90113 biofilm assessed as cell perturbation at MIC after 1 hr by osmium tetroxide staining based scanning electron microscopic method; type: functional
Cryptococcus neoformans [23] = experiment: Induction of cell lysis in Cryptococcus neoformans ATCC 90113 biofilm assessed as loss of cell wall at MIC after 1 hr by photungstic acid/ammonium molybdate/uranyl acetatebased scanning based transmission electron microscopic method; type: functional
Candida albicans [24] = experiment: Antifungal activity against Candida albicans by broth microdilution method; type: functional
[25] = Pichia kudriavzevii, ATCC 6258, read-out: IC50
[26] = Staphylococcus aureus, ATCC 33591, read-out: IC50
[27] = Staphylococcus aureus, ATCC 29213, read-out: IC50

MIC (Cryptococcus neoformans [3]): 0.63 mg/L (≈ 0.657 µM)
IC50 (Pseudomonas aeruginosa): Not Active
Activity (Lipid bilayer [6]): Active
Stability [8]: Stable
Structure (SMILES): CC[C@H](C)[C@H](NC(=O)[C@H](CC1CCCCC1)NC(=O)[C@H](Cc1c[nH]c2ccccc12)NC(=O)[C@@H](N)CCCN)C(=O)N[C@H](Cc1ccccc1)C(=O)N[C@@H](Cc1cn(Cc2ccccc2)cn1)C(N)=O (H-[Orn]W[Cha]I[dF][His(τ-Bzl)]-NH2)
IC50 (Candida albicans [1]): Not Active
IC50 (Nakaseomyces glabratus): Not Active
MFC (Pichia kudriavzevii [2]): 10 mg/L (≈ 10.4 µM)
IC50 (Aspergillus fumigatus): Not Active
IC50 [4]: Not Active
Activity (Vero): Non-Toxic
selectivity ratio [5]: 21 to 25
Activity (Lipid bilayer [7]): Non-Toxic
Activity (Cryptococcus neoformans [9]): Active
Activity (Cryptococcus neoformans [10]): Active

Structure (SMILES): Cc1ccc(C[C@H](NC(=O)[C@@H](Cc2ccccc2)NC(=O)[C@@H](Cc2c[nH]c3ccccc23)NC(=O)[C@@H](N)CCCN)C(=O)N[C@H](Cc2ccccc2)C(=O)N[C@H](CCCCN)C(N)=O)cc1 (H-[Orn][dW][dF][Phe(4-Me)][dF][dK]-NH2)
Activity (Cryptococcus neoformans [11]): Active
Activity (Lipid bilayer [12]): Active
IC50 (Candida albicans [1]): Not Active
IC50 (Nakaseomyces glabratus): Not Active
MIC (Pichia kudriavzevii [13]; Pichia kudriavzevii, ATCC 6258): 20 mg/L (≈ 22.2 µM)
IC50 (Pichia kudriavzevii [13]; [25]): 12.1 mg/L (≈ 13.4 µM)
MFC (Pichia kudriavzevii [2]): 20 mg/L (≈ 22.2 µM)
IC50 (Aspergillus fumigatus): Not Active
IC50 (Cryptococcus neoformans [3]): 0.4 mg/L (≈ 0.444 µM)
MIC (Cryptococcus neoformans [3]): 0.63 mg/L (≈ 0.699 µM)
MFC (Cryptococcus neoformans [14]): 0.63 mg/L (≈ 0.699 µM)
IC50 [4]: Not Active
IC50 (Staphylococcus aureus [15]; [26]): > 20 mg/L
IC50 (Staphylococcus aureus [16]; [27]): > 20 mg/L
MIC (Escherichia coli [17]): 20 mg/L (≈ 22.2 µM)
IC50 (Escherichia coli [17]): 8.2 mg/L (≈ 9.1 µM)
MBC (Escherichia coli [18]): 20 mg/L (≈ 22.2 µM)
IC50 (Pseudomonas aeruginosa; Pseudomonas aeruginosa, ATCC 27853, read-out: IC50): 20 mg/L (≈ 22.2 µM)
Activity (Vero): Non-Toxic
selectivity ratio [5]: 21 to 25
Activity (Lipid bilayer [6]): Active
Activity (Lipid bilayer [7]): Non-Toxic
Stability [8]: Stable
Activity (Cryptococcus neoformans [9]): Active
Activity (Lipid bilayer [19]): Active
Activity (Lipid bilayer [20]): Non-Toxic

Structure (SMILES): Cc1ccc(C[C@H](NC(=O)[C@@H](Cc2ccccc2)NC(=O)[C@@H](Cc2c[nH]c3ccccc23)NC(=O)[C@@H](N)CCCN)C(=O)N[C@H](Cc2ccccc2)C(=O)N[C@@H](Cc2ccc(N)cc2)C(N)=O)cc1 (H-[Orn][dW][dF][Phe(4-Me)][dF][Phe(4-NH2)]-NH2)
IC50 (Candida albicans [1]): Not Active
IC50 (Nakaseomyces glabratus): Not Active
IC50 (Pichia kudriavzevii [13]): Not Active
IC50 (Aspergillus fumigatus): Not Active
IC50 (Cryptococcus neoformans [3]): 4.73 mg/L (≈ 5.06 µM)
MIC (Cryptococcus neoformans [3]): 5 mg/L (≈ 5.35 µM)
MFC (Cryptococcus neoformans [14]): 5 mg/L (≈ 5.35 µM)
IC50 [4]: Not Active
IC50 (Staphylococcus aureus [15]; [26]): > 20 mg/L
IC50 (Staphylococcus aureus [16]; [27]): > 20 mg/L
IC50 (Escherichia coli [17]): 19.5 mg/L (≈ 20.9 µM)
IC50 (Pseudomonas aeruginosa): Not Active
Activity (Vero): Non-Toxic
Activity (Lipid bilayer [6]): Active
Activity (Lipid bilayer [7]): Non-Toxic
Activity (Cryptococcus neoformans [21]): Active
Activity (Cryptococcus neoformans [22]): Active
Activity (Cryptococcus neoformans [23]): Active

IC50 (Candida albicans [24]): 6.8 µM
Structure (SMILES): NCCCC[C@H](NC(=O)[C@@H](Cc1ccccc1)NC(=O)[C@H](Cc1ccccc1)NC(=O)[C@@H](Cc1ccccc1)NC(=O)[C@@H](Cc1c[nH]c2ccccc12)NC(=O)[C@@H](N)Cc1c[nH]cn1)C(N)=O (H-H[dW][dF]F[dF]K-NH2)

Structure (SMILES): Cc1ccc(C[C@H](NC(=O)[C@@H](Cc2ccccc2)NC(=O)[C@@H](Cc2c[nH]c3ccccc23)NC(=O)[C@@H](N)CCCN)C(=O)N[C@H](Cc2ccccc2)C(=O)N[C@@H](CCCN)C(N)=O)cc1 (H-[Orn][dW][dF][Phe(4-Me)][dF][Orn]-NH2)
IC50 (Candida albicans [1]): Not Active
IC50 (Nakaseomyces glabratus): Not Active
MIC (Pichia kudriavzevii [13]; Pichia kudriavzevii, ATCC 6258): 20 mg/L (≈ 22.5 µM)
IC50 (Pichia kudriavzevii [13]; [25]): 15.5 mg/L (≈ 17.5 µM)
MFC (Pichia kudriavzevii [2]): 20 mg/L (≈ 22.5 µM)
IC50 (Aspergillus fumigatus): Not Active
IC50 (Cryptococcus neoformans [3]): 0.46 mg/L (≈ 0.519 µM)
MIC (Cryptococcus neoformans [3]): 0.63 mg/L (≈ 0.71 µM)
MFC (Cryptococcus neoformans [14]): 0.63 mg/L (≈ 0.71 µM)
IC50 [4]: Not Active
IC50 (Staphylococcus aureus [15]): Not Active
IC50 (Staphylococcus aureus [16]): Not Active
IC50 (Escherichia coli [17]): 16.5 mg/L (≈ 18.6 µM)
IC50 (Pseudomonas aeruginosa): Not Active
Activity (Vero): Non-Toxic
selectivity ratio [5]: 21 to 25
Activity (Lipid bilayer [6]): Active
Activity (Lipid bilayer [7]): Non-Toxic
Stability [8]: Stable
